Measurements from PubChem BioAssay (NCI).
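Five compound concentrations were applied to cells in 96-well plates for 48 hours; endpoints were derived by simple linear interpolation of the resulting dose-response curve. The concentration for 50% growth inhibition is given as GI50. TGI marks complete inhibition of growth.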

Experiments:
Assay in all cases: inhibition of tumour cell growth, NCI panel, 48 h
A498 renal = tested on: A498 renal
A549 NSCLC = tested on: A549 NSCLC
ACHN renal = tested on: ACHN renal
BT-549 breast = tested on: BT-549 breast
COLO 205 colon = tested on: COLO 205 colon
DU-145 prostate = tested on: DU-145 prostate
EKVX NSCLC = tested on: EKVX NSCLC
HCC-2998 colon = tested on: HCC-2998 colon
HCT-116 colon = tested on: HCT-116 colon
HCT-15 colon = tested on: HCT-15 colon
HL-60(TB) leukemia = tested on: HL-60(TB) leukemia
HS 578T breast = tested on: HS 578T breast
IGROV1 ovarian = tested on: IGROV1 ovarian
K-562 leukemia = tested on: K-562 leukemia
KM12 colon = tested on: KM12 colon
LOX IMVI melanoma = tested on: LOX IMVI melanoma
M14 melanoma = tested on: M14 melanoma
MALME-3M melanoma = tested on: MALME-3M melanoma
MCF7 breast = tested on: MCF7 breast
MDA-MB-231 breast = tested on: MDA-MB-231 breast
MDA-MB-435 = tested on: MDA-MB-435
MDA-MB-468 breast = tested on: MDA-MB-468 breast
MOLT-4 leukemia = tested on: MOLT-4 leukemia
NCI-H460 lung = tested on: NCI-H460 lung
NCI-H522 lung = tested on: NCI-H522 lung
OVCAR-3 ovarian = tested on: OVCAR-3 ovarian
OVCAR-4 ovarian = tested on: OVCAR-4 ovarian
OVCAR-5 ovarian = tested on: OVCAR-5 ovarian
OVCAR-8 ovarian = tested on: OVCAR-8 ovarian
PC-3 prostate = tested on: PC-3 prostate
RPMI-8226 leukemia = tested on: RPMI-8226 leukemia
RXF 393 renal = tested on: RXF 393 renal
SF-268 CNS = tested on: SF-268 CNS
SF-295 CNS = tested on: SF-295 CNS
SF-539 CNS = tested on: SF-539 CNS
SK-MEL-2 melanoma = tested on: SK-MEL-2 melanoma
SK-MEL-28 melanoma = tested on: SK-MEL-28 melanoma
SK-MEL-5 melanoma = tested on: SK-MEL-5 melanoma
SN12C renal = tested on: SN12C renal
SNB-19 CNS = tested on: SNB-19 CNS
SNB-75 CNS = tested on: SNB-75 CNS
SW-620 colon = tested on: SW-620 colon
T-47D breast = tested on: T-47D breast
TK-10 renal = tested on: TK-10 renal
U251 CNS = tested on: U251 CNS
UACC-62 melanoma = tested on: UACC-62 melanoma
UO-31 renal = tested on: UO-31 renal

`COC[C@@H](CC(C)C)N=C1NC(=O)/C(=C/c2ccc3ncsc3c2)N1` gave a GI50 (A498 renal) of 1930 nM, a TGI (A498 renal) of 7.93 µM and a GI50 (A549 NSCLC) of 2030 nM. For the same molecule, the TGI (A549 NSCLC) was > 100 µM, the GI50 (ACHN renal) was 2460 nM and the TGI (ACHN renal) was 11.4 µM. The GI50 (BT-549 breast) was 1560 nM, the TGI (BT-549 breast) was 7.59 µM and the GI50 (COLO 205 colon) was 1940 nM. The TGI (COLO 205 colon) was 6.28 µM, the GI50 (DU-145 prostate) was 3.06 µM and the TGI (DU-145 prostate) was > 100 µM. For the same molecule, the GI50 (EKVX NSCLC) was 3.27 µM, the TGI (EKVX NSCLC) was 75.8 µM and the GI50 (HCC-2998 colon) was 4.03 µM. The TGI (HCC-2998 colon) was 56.4 µM, the GI50 (HCT-116 colon) was 1450 nM and the TGI (HCT-116 colon) was 66.4 µM. For the same molecule, the GI50 (HCT-15 colon) was 2660 nM, the TGI (HCT-15 colon) was > 100 µM and the GI50 (HL-60(TB) leukemia) was 3.11 µM. The TGI (HL-60(TB) leukemia) was 8.36 µM, the GI50 (HS 578T breast) was 2260 nM and the TGI (HS 578T breast) was 8.33 µM. It also gave a GI50 (IGROV1 ovarian) of 2420 nM, a TGI (IGROV1 ovarian) of 22 µM and a GI50 (K-562 leukemia) of 2800 nM. The TGI (K-562 leukemia) was > 100 µM, the GI50 (KM12 colon) was 3.19 µM and the TGI (KM12 colon) was 34.5 µM. For the same molecule, the GI50 (LOX IMVI melanoma) was 2570 nM, the TGI (LOX IMVI melanoma) was > 100 µM and the GI50 (M14 melanoma) was 3.88 µM. For the same molecule, the TGI (M14 melanoma) was 22 µM, the GI50 (MALME-3M melanoma) was 2530 nM and the TGI (MALME-3M melanoma) was 7.29 µM. The GI50 (MCF7 breast) was 2640 nM, the TGI (MCF7 breast) was > 100 µM and the GI50 (MDA-MB-231 breast) was 3.65 µM. The TGI (MDA-MB-231 breast) was > 100 µM, the GI50 (MDA-MB-435) was 3.56 µM and the TGI (MDA-MB-435) was 18.7 µM. For the same molecule, the GI50 (MDA-MB-468 breast) was 1980 nM, the TGI (MDA-MB-468 breast) was 10.8 µM and the GI50 (MOLT-4 leukemia) was 2680 nM. The TGI (MOLT-4 leukemia) was 15.4 µM, the GI50 (NCI-H460 lung) was 3.08 µM and the TGI (NCI-H460 lung) was > 100 µM. For the same molecule, the GI50 (NCI-H522 lung) was 1160 nM, the TGI (NCI-H522 lung) was 4.89 µM and the GI50 (OVCAR-3 ovarian) was 1220 nM. It also gave a TGI (OVCAR-3 ovarian) of 4.32 µM, a GI50 (OVCAR-4 ovarian) of 6.14 µM and a TGI (OVCAR-4 ovarian) of 79.3 µM. For the same molecule, the GI50 (OVCAR-5 ovarian) was 3.04 µM, the TGI (OVCAR-5 ovarian) was > 100 µM and the GI50 (OVCAR-8 ovarian) was 2880 nM. The TGI (OVCAR-8 ovarian) was > 100 µM, the GI50 (PC-3 prostate) was 3.9 µM and the TGI (PC-3 prostate) was 52.7 µM. For the same molecule, the GI50 (RPMI-8226 leukemia) was 2800 nM, the TGI (RPMI-8226 leukemia) was 9.52 µM and the GI50 (RXF 393 renal) was 1910 nM. The TGI (RXF 393 renal) was 4.96 µM, the GI50 (SF-268 CNS) was 3.41 µM and the TGI (SF-268 CNS) was 19 µM. For the same molecule, the GI50 (SF-295 CNS) was 3.46 µM, the TGI (SF-295 CNS) was > 100 µM and the GI50 (SF-539 CNS) was 1040 nM. For the same molecule, the TGI (SF-539 CNS) was 4.54 µM, the GI50 (SK-MEL-2 melanoma) was 1880 nM and the TGI (SK-MEL-2 melanoma) was 4.32 µM. The GI50 (SK-MEL-28 melanoma) was 2690 nM, the TGI (SK-MEL-28 melanoma) was 8.69 µM and the GI50 (SK-MEL-5 melanoma) was 2800 nM. It also gave a TGI (SK-MEL-5 melanoma) of 8.85 µM, a GI50 (SN12C renal) of 2710 nM and a TGI (SN12C renal) of 30 µM. It also gave a GI50 (SNB-19 CNS) of 1760 nM, a TGI (SNB-19 CNS) of 48.3 µM and a GI50 (SNB-75 CNS) of 1040 nM. For the same molecule, the TGI (SNB-75 CNS) was 6.75 µM, the GI50 (SW-620 colon) was 2140 nM and the TGI (SW-620 colon) was 20 µM. For the same molecule, the GI50 (T-47D breast) was 1960 nM, the TGI (T-47D breast) was 9.01 µM and the GI50 (TK-10 renal) was 2950 nM. For the same molecule, the TGI (TK-10 renal) was > 100 µM, the GI50 (U251 CNS) was 2580 nM and the TGI (U251 CNS) was > 100 µM. The GI50 (UACC-62 melanoma) was 2190 nM, the TGI (UACC-62 melanoma) was 8.63 µM and the GI50 (UO-31 renal) was 2360 nM. For the same molecule, the TGI (UO-31 renal) was 6.7 µM.
